Results published in ChEMBL document CHEMBL1141470, “4-(Heteroarylaminomethyl)-N-(2-aminophenyl)-benzamides and their analogs as a novel class of histone deacetylase inhibitors” (Bioorg Med Chem Lett, 2008).
Calls of active or inactive are those of the source. The calls are words filed in the database; no cut-off is given here.

Columns and labels:
Histone deacetylase 1 [1] = target: T1, Histone deacetylase 1 (Homo sapiens, UniProt Q13547); assay: Inhibition of recombinant HDAC1
HCT-116 [2] = assay: Cytotoxicity against human HCT116 cells by MTT assay; type: functional, cell-based
HMEC = assay: Cytotoxicity against human HMEC cells by MTT assay; type: cell-based
Histone deacetylase 1 [3] = target: T1, Histone deacetylase 1; assay: Inhibition of HDAC1 in human T24 cells assessed as induction of histone H4 acetylation after 16 hrs relative to MS-275; type: cell-based, T-24
T-24 = assay: Induction of p21WAF1/CIP1 expression in human T24 cells; type: functional, cell-based
HCT-116 [4] = assay: Cell cycle arrest in human HCT116 cells by accumulation at G2/M phase; type: functional, cell-based
SW48 [5] = assay: Antitumor activity in human SW48 cells xenografted mouse assessed as tumor growth inhibition at 20 mg/kg, ip qd after 14 days relative to control; type: functional; design: scale not given: the % may be the effect or the level left; settings: route intraperitoneal
SW48 [6] = assay: Antitumor activity in human SW48 cells xenografted mouse assessed as tumor growth inhibition at 90 mg/kg, po qd after 14 days relative to control; type: functional; design: scale not given: the % may be the effect or the level left
A549 [7] = assay: Antitumor activity in human A549 cells xenografted mouse assessed as tumor growth inhibition at 20 mg/kg, ip qd after 14 days relative to control; type: functional; design: scale not given: the % may be the effect or the level left; settings: route intraperitoneal
A549 [8] = assay: Antitumor activity in human A549 cells xenografted mouse assessed as tumor growth inhibition at 90 mg/kg, po qd after 14 days relative to control; type: functional; design: scale not given: the % may be the effect or the level left
PANC-1 = assay: Antitumor activity in human PANC1 cells xenografted mouse assessed as tumor growth inhibition at 20 mg/kg, ip qd after 14 days relative to control; type: functional; design: scale not given: the % may be the effect or the level left; settings: route intraperitoneal
COLO 205 = assay: Antitumor activity in human COLO205 cells xenografted mouse assessed as tumor growth inhibition at 90 mg/kg, po qd after 14 days relative to control; type: functional; design: scale not given: the % may be the effect or the level left

T1 sequence (Q13547 whole entry): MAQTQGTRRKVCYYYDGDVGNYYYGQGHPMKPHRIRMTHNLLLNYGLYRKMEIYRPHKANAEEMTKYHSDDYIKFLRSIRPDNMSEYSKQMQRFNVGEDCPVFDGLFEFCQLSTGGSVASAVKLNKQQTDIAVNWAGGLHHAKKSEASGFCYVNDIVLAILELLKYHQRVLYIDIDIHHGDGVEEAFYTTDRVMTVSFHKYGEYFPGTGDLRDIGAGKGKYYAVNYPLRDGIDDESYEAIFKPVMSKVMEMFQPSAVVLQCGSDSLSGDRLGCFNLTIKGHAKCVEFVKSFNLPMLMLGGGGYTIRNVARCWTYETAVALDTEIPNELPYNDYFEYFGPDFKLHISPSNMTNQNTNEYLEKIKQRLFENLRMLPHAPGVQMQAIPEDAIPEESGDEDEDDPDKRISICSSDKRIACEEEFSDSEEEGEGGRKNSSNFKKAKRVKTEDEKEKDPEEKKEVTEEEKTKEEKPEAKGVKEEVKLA

Compound	IC50 (Histone deacetylase 1 [1]) [nM]	IC50 (HCT-116 [2]) [nM]	IC50 (HMEC) [nM]	EC50 (Histone deacetylase 1 [3]) [nM]	further results
Nc1ccccc1NC(=O)c1ccc(CSc2nc3ccccc3s2)cc1	100	800	3000	3000	–
CSc1nnc(NCc2ccc(C(=O)Nc3ccccc3N)cc2)[nH]1	200	600	–	–	–
Cn1ccnc1SCc1ccc(C(=O)Nc2ccccc2N)cc1	1000	5000	–	–	–
Nc1ccccc1NC(=O)c1ccc(CNc2ncc(-c3ccc(Cl)cc3)s2)cc1	300	300	–	–	–
COc1ccc2nc(SCc3ccc(C(=O)Nc4ccccc4N)cc3)[nH]c2c1	70	200	10000	1000	EC50 (T-24): 600 nM; Activity (HCT-116 [4]): Active
Nc1ccccc1NC(=O)c1ccc(CNc2nc3ccccc3[nH]2)cc1	100	300	27000	1000	–
Nc1ccccc1NC(=O)c1ccc(CSc2nc3ccccc3[nH]2)cc1	90	300	14000	< 1000	–
Nc1ccccc1NC(=O)c1ccc(CSc2nc3ccc(NCc4ccccn4)cc3s2)cc1	70	1000	8000	3000	–
Nc1ccccc1NC(=O)c1ccc(CNc2nc3ccc(OCCN4CCOCC4)cc3s2)cc1	60	200	15000	1000	EC50 (T-24): 1000 nM; Activity (SW48 [5]): 74%; Activity (SW48 [6]): 72%; Activity (A549 [7]): 65%; Activity (A549 [8]): 65%; Activity (PANC-1): 70%; Activity (COLO 205): 62%; Activity (HCT-116 [4]): Active
COc1ccc2nc(NCc3ccc(C(=O)Nc4ccccc4N)cc3)sc2c1	30	200	5000	1000	EC50 (T-24): 800 nM; Activity (HCT-116 [4]): Active
Nc1ccccc1NC(=O)c1ccc(CNc2nc3ccc(Br)cc3s2)cc1	50	400	6000	2000	–
Nc1ccccc1NC(=O)c1ccc(CNc2cc(-c3ccccc3)[nH]n2)cc1	70	300	–	–	–
Nc1ccccc1NC(=O)c1ccc(CSc2nc3ccc(NCc4cccnc4)cc3s2)cc1	800	1000	> 50000	2000	–
Nc1ccccc1NC(=O)c1ccc(CNc2ncc(Br)s2)cc1	400	400	–	–	–
Nc1ccccc1NC(=O)c1ccc(CSc2nnc(-c3ccccc3)o2)cc1	80	400	–	–	–
Nc1ccccc1NC(=O)c1ccc(CSc2ncc[nH]2)cc1	500	5000	–	–	–
Nc1ccccc1NC(=O)c1ccc(CSc2nc3ccc(NCCN4CCOCC4)cc3s2)cc1	70	200	15000	5000	–
Nc1ccccc1NC(=O)c1ccc(CNc2nc3cc(Cl)ccc3o2)cc1	100	200	17000	1000	–
